# Patent publication US11447535B2, “GLP-1 analogues” (Sun Pharmaceutical Industries Limited, priority 2018, dated 2022)
# Marks after values point to notes of the source that are not given here.
# Key:
# [1] = test system: SD rats; experiment: Oral glucose tolerance test (OGTT) in rats; single injection; 1 mg/kg; format: in vivo; design: Change in AUC (mg/dL*min): unit not given here; settings: for Blood Glucose AUC (mg/dL*min) Mean: Exp. 2; for Change in AUC (mg/dL*min): Exp. 2, vs control group
# Protocol: (§1) Animals were divided into three groups—a normal control group, a test group and a third semaglutide group, with 4 animals in each group. The animals were fasted for 12 hours before initiation of OGTT. To the test group animals, the Compound 1 was injected subcutaneously at 1 mg/kg dose. To the semaglutide group, a dose of 1 mg/kg was injected subcutaneously. After 22 hrs, 166 hrs and 334 hrs of subcutaneous injection of test drug or semaglutide, blood glucose was measured with blood glucose meter (time 0 measurements). All the animals were then given 2 g/kg of glucose solution orally. Blood glucose was measured at 20, 40, 60, 90 and 120 minutes following glucose challenge. Body weight and food intake was recorded. Blood glucose data was analyzed using Two way ANOVA followed by Bonferroni posttests using PRISM (Graph Pad version 5.03). Data of Blood glucose AUC0-120 min, was analyzed using t test.
# as §1, with “animals,” for “animals, the”, “1, Compound 13 and Compound 16 were” for “1 was”, “compound” for “drug”
# [2] = Food intake and body weight recorded in the rat OGTT study; format: in vivo, rats; settings: 1 mg/Kg; for Body Weight Change (%) Mean / Food Consumption (g) Mean: Exp. 2
# Protocol: as §1
# as §1, with “animals,” for “animals, the”, “1, Compound 13 and Compound 16 were” for “1 was”, “compound” for “drug”
# [3] = test system: db/db mice (diabetic mouse model); experiment: Separate db/db diabetic mouse study, q2d*15 up to day 28, recovery period day 29 to day 45; format: in vivo; settings: for Blood Glucose AUC (Day 30-37) % Change vs Control / Blood Glucose AUC (Day 30-37) (mg/dL*days) Mean / Blood Glucose AUC (Day 38-45) % Change vs Control / Blood Glucose AUC (Day 38-45) (mg/dL*days) Mean: recovery period
# Protocol: The study was performed in similar manner as above on diabetic mouse model. The animals were divided into three treatment groups—a diabetic control group, a test group and a semaglutide treatment group. The representative compounds of the present disclosure, Compound 1, Compound 13 and Compound 16, were injected subcutaneously at 3.04 or 6.078 nM dose (every alternate day up to day 28 (q2d*15). The same dosage regimen was administered in semaglutide treatment group. Measurements of blood glucose levels and body weight were done daily. % HbA1c, Insulin was measured on Day 0, day 14 and day 29. Cumulative food intake and body weight change was calculated on day 14 and 29. % HbA1c, Insulin data was analyzed by two way ANOVA followed by Bonferroni's posttests using PRISM (Graph Pad version 5.03). Whereas Blood Glucose AUC, Body weight change and Cumulative food intake data was analyzed by one way ANOVA followed by Bonferroni's posttests using PRISM (Graph Pad version 5.03). From day 29 to day 45, animals were kept on recovery period during which no drug treatment was given. Blood Glucose and Body weight was measured during this period. On day 45, Body weight Changes, % HbA1c, Insulin was measured.
# [4] = OGTT, 1 mg/Kg dose, after 24 hrs
# [5] = earlier dose 3.04 nM (3.4 nM given for Compound 16)
# [6] = recovery study, day 45, earlier dose 3.04 nM
# [7] = recovery study, day 45, earlier dose 6.078 nM (6.0788 nM given for Compound 13)
substance,measurement,setting,value
"Compound 7: SEQ ID NO: 05, Moiety B; liraglutide with 2nd amino acid Ala replaced with Aib and additional 32nd amino acid Leu (HXXXGTFTSDVSSYLXGQAAXEFXAWLVRGRGXX; (2)..(2) Xaa = Aib; (3)..(3) Xaa = absent.; (4)..(4) Xaa = Glu.; (16)..(16) Xaa = Glu.; (21)..(21) Lys is substituted; (24)..(24) Xaa is Ile.; (33)..(33) Xaa is Leu.; (34)..(34) Xaa is absent.)",% Glucose Reduction (Blood Glucose AUC0-120 min),[1]; [4],71.9%
same,Comp/std Liraglutide (ratio of % glucose reduction),[1]; [4],1.73
same,blood glucose lowering effect vs liraglutide,"[1]; OGTT, 1 mg/Kg, at 24 hrs",significantly higher than liraglutide
"Compound 16: SEQ ID NO: 05, acylated with Moiety D (HXXXGTFTSDVSSYLXGQAAXEFXAWLVRGRGXX; lipidated side chain; (2)..(2) Xaa = Aib; (3)..(3) Xaa = absent.; (4)..(4) Xaa = Glu.; (16)..(16) Xaa = Glu.; (21)..(21) Lys is substituted; (24)..(24) Xaa is Ile.; (33)..(33) Xaa is Leu.; (34)..(34) Xaa is absent.)",Body Weight Change (%) Mean,[2]; 48 h,−10.7%
same,Food Consumption (g) Mean,[2]; 48 h,5.9 g
same,Body Weight Change (%) Mean,[2]; 154 h,−7.0%
same,Body Weight Change (%) Mean,[2]; 324 h,−4.3%
same,Food Consumption (g) Mean,[2]; 324 h,104.3 g
same,food consumed vs animals administered with semaglutide,[2]; text on Table 8,consumed significantly less food
same,lowering of body weight,[2]; text on Table 8,substantial lowering of body weight
same,Blood Glucose AUC (mg/dL*min) Mean,"[1]; OGTT, 1 mg/Kg, 22 hr",1646 mg·min/dL
same,Change in AUC (mg/dL*min),"[1]; OGTT, 1 mg/Kg, 22 hr",−80.7
same,Blood Glucose AUC (mg/dL*min) Mean,"[1]; OGTT, 1 mg/Kg, 168 hr",4283 mg·min/dL
same,Change in AUC (mg/dL*min),"[1]; OGTT, 1 mg/Kg, 168 hr",−57.6
same,Blood Glucose AUC (mg/dL*min) Mean,"[1]; OGTT, 1 mg/Kg, 336 hr",8295.0 mg·min/dL
same,Change in AUC (mg/dL*min),"[1]; OGTT, 1 mg/Kg, 336 hr",−2.3
same,reduction in blood glucose AUC,"[1]; after 168 hrs of injection, 1 mg/kg",about 60%
same,Blood Glucose AUC (Day 0-29) % Change Vs Control,"[3]; 3.04 nM, q2d*15",−44.54%
same,Blood Glucose AUC (Day 0-29) (mg/dL*days) Mean,"[3]; 3.04 nM, q2d*15",9399.0*** mg/dL*days
same,"Body Weight Change Day 29, % Change vs Day 0 Mean","[3]; 3.04 nM, q2d*15",−1.4%
same,Cumulative Food Intake (g) Day 0-29 Mean,"[3]; 3.04 nM, q2d*15",77.4 g
same,Blood Glucose AUC (Day 0-29) % Change Vs Control,"[3]; 6.078 nM, q2d*15",−52.29%
same,Blood Glucose AUC (Day 0-29) (mg/dL*days) Mean,"[3]; 6.078 nM, q2d*15",8086.1***## mg/dL*days
same,"Body Weight Change Day 29, % Change vs Day 0 Mean","[3]; 6.078 nM, q2d*15",−5.5%
same,Cumulative Food Intake (g) Day 0-29 Mean,"[3]; 6.078 nM, q2d*15",66.7 g
same,% HbA1C Mean,"[3]; Day 0, 3.04 nM, q2d*15",7.74%
same,Insulin (ng/mL) Mean,"[3]; Day 0, 3.04 nM, q2d*15",13.9 ng/mL
same,% HbA1C Mean,"[3]; Day 0, 6.078 nM, q2d*15",7.83%
same,Insulin (ng/mL) Mean,"[3]; Day 0, 6.078 nM, q2d*15",21.8 ng/mL
same,% HbA1C Mean,"[3]; Day 14, 3.04 nM, q2d*15",5.67 ***# %
same,Insulin (ng/mL) Mean,"[3]; Day 14, 3.04 nM, q2d*15",50.8* ng/mL
same,% HbA1C Mean,"[3]; Day 14, 6.078 nM, q2d*15",5.64 ***# %
same,Insulin (ng/mL) Mean,"[3]; Day 14, 6.078 nM, q2d*15",58.1** ng/mL
same,% HbA1C Mean,"[3]; Day 29, 3.04 nM, q2d*15",5.33 ***# %
same,Insulin (ng/mL) Mean,"[3]; Day 29, 3.04 nM, q2d*15",53.8** ng/mL
same,% HbA1C Mean,"[3]; Day 29, 6.078 nM, q2d*15",5.16 ***# %
same,Insulin (ng/mL) Mean,"[3]; Day 29, 6.078 nM, q2d*15",68.2*** ng/mL
same,"HbA1c, blood glucose, food consumption and body weight vs control",[3]; about 3 nM and 6 nM dose,significant reduction
same,Blood Glucose AUC (Day 30-37) % Change vs Control,[3]; [5],−32.62%
same,Blood Glucose AUC (Day 30-37) (mg/dL*days) Mean,[3]; [5],2420.0** mg/dL*days
same,Blood Glucose AUC (Day 38-45) % Change vs Control,[3]; [5],−8.82%
same,Blood Glucose AUC (Day 38-45) (mg/dL*days) Mean,[3]; [5],3284.0* mg/dL*days
same,Blood Glucose AUC (Day 30-37) % Change vs Control,[3]; earlier dose 6.078 nM,−39.65%
same,Blood Glucose AUC (Day 30-37) (mg/dL*days) Mean,[3]; earlier dose 6.078 nM,2167.7*** mg/dL*days
same,Blood Glucose AUC (Day 38-45) % Change vs Control,[3]; earlier dose 6.078 nM,−12.97%
same,Blood Glucose AUC (Day 38-45) (mg/dL*days) Mean,[3]; earlier dose 6.078 nM,3134.7** mg/dL*days
same,% HbA1C Mean,[3]; [6],7.1* %
same,Delta HbA1C vs. DC,[3]; [6],−1.4
same,Insulin (ng/mL) Mean,[3]; [6],15.5 ng/mL
same,% HbA1C Mean,[3]; [7],7.2* %
same,Delta HbA1C vs. DC,[3]; [7],−1.3
same,Insulin (ng/mL) Mean,[3]; [7],18.4 ng/mL
same,Body Weight % Change vs Day 45 Mean,"[3]; recovery study, earlier dose 3.04 nM",6.1%
same,Body Weight % Change vs Day 45 Mean,"[3]; recovery study, earlier dose 6.078 nM (6.0788 nM given for Compound 13)",5.7%
